Source: PMC5702617, “Novel peptide probes to assess the tensional state of fibronectin fibers in cancer” (Nature Communications, 2017)
Where two headings read alike, the source gives them in different places.

What was measured:
PC-3-bearing mice [1] = assay: Biodistribution in PC-3 tumor grafted mice; type: in vivo, mouse; conditions: PC-3 grafted mice, i.v. 150 kBq (2.4 nmol, 100 µL PBS), γ counter, mean ± SD, n = 4
Protocol: (§1) Experiments were performed 3–4 weeks after inoculation.
(§2) For the biodistribution experiments, PC-3 tumor grafted mice were injected into the tail vein with 150 kBq ^111In-FnBPA5 or ^111In-scrambled FnBPA5 (2.4 nmol, 100 µL PBS). For each peptide, groups of four mice were sacrificed at 1, 4, 24, and 96 h post injection. Blocking experiment (n = 4) was performed by injection of an excess of peptide (100 µg, 24 nmol in 100 µL PBS) directly before the administration of the corresponding radiolabeled peptide. The organs were collected, weighed and counted for activity with a γ counter (Packard Cobra II Auto, Gamma, PerkinElmer AG, Schwerzenbach, Switzerland) 4 h p.i. The results were expressed as a percentage of injected activity per gram of tissue (% IA per g tissue). The Student's t test analyses were considered as type 3 (two sample unequal variance) and statistical significance was assumed for p-values smaller than 0.05.

[2] = Biodistribution in PC-3 tumor grafted mice; type: in vivo, mouse; conditions: female, CD1 nude, mouse, in vivo, iv, 150 kBq (2.4 nmol), total radioactivity, PC-3 grafted mice, i.v. 150 kBq (2.4 nmol), mean ± SD, n = 4; for tissue to tissue ratio at 1 h: 1 h p.i.; for tissue to tissue ratio at 4 h: 4 h p.i.; for tissue to tissue ratio at 24 h: 24 h p.i.; for tissue to tissue ratio at 96 h: 96 h p.i.
Protocol: as §1, §2

[3] = In vitro plasma stability; type: in vitro ADME, human; conditions: RP-HPLC, means from three experiments; for stability in human blood plasma: 37°C
Protocol: The stability of peptides in blood is often limited as they are rapidly cleaved by catalytic enzymes found in tissue and blood, resulting in a short biological half-life. […] To verify whether the FnBPA5 peptide can be used for in vivo applications, we next performed a plasma stability test. The metabolic stability of the peptide radiotracer ^111In-FnBPA5 was tested in vitro by incubating the radiolabeled FnBPA5 at 37°C with human blood plasma, or water as control. The unbound peptide fraction was separated from the plasma proteins at different time points (0, 1, 24, 48, and 72 h) and was analyzed by reversed-phase high-pressure liquid chromatography (RP-HPLC).
After that, the samples were filtrated using a Thomson Single StEP Filter vial 0.45 μm PVDF (Thomson Instrument Company, Oceanside, USA) and the supernatant was analyzed by reversed-phase HPLC (Varian Prostar HPLC System, SpectraLab Scientific Inc., Canada) using a D-Bio Discovery Wide Pore C18 column (25 cm × 4.6 mm; 5 μm).

PC-3-bearing mice [4] = assay: SPECT/CT imaging of PC-3-bearing mice; type: in vivo, mouse
Protocol: Thirty-three days from the inoculation of the tumor cells, the mice were intravenously injected with ~15 MBq ^111In-FnBPA5 resp. ^111In-scrambled FnBPA5-NODAGA (2.4 nmol, 100 µL PBS) into the tail vein. […] The images were reconstituted and processed with InVivoScope® software (Bioscan Inc., Washington DC, USA).

PC-3-bearing mice [5] = assay: In vivo blocking experiment in PC-3 tumor grafted mice; design: species or system mouse
Protocol: as §2

[6] = read-out: Tumor-to-kidney ratio
[7] = 10-fold excess of unlabeled FnBPA5 (24 nmol) pre-injected, 4 h p.i.
[8] = 4h p.i. blocking: corresponding unlabeled peptide (24 nmol) i.v. directly before the radiolabeled peptide, PC-3 grafted mice, mean ± SD, n = 4

CC[C@H](C)[C@H](NC(=O)CNC(=O)[C@H](CCCCN)NC(=O)[C@@H](NC(=O)[C@H](CO)NC(=O)[C@H](CCC(=O)O)NC(=O)[C@H](CCC(=O)O)NC(=O)[C@H](CC(=O)O)NC(=O)[C@H](Cc1ccccc1)NC(=O)[C@H](CCC(=O)O)NC(=O)[C@@H](NC(=O)[C@H](CC(C)C)NC(=O)[C@H](CC(N)=O)NC(=O)[C@H](CO)NC(=O)[C@H](CCC(=O)O)NC(=O)[C@@H](NC(=O)[C@@H](NC(=O)[C@@H](NC(=O)[C@H](CCC(N)=O)NC(=O)CNC(=O)CNC(=O)CNC(=O)[C@@H](N)CSC1CC(=O)N(CCNC(=O)CCC(C(=O)O)N2CCN(CC(=O)O)CCN(CC(=O)O)CC2)C1=O)C(C)C)[C@@H](C)O)[C@@H](C)O)C(C)C)[C@@H](C)O)C(=O)N[C@H](C(=O)N[C@H](C(=O)NCC(=O)N[C@@H](C)C(=O)N[C@H](C(=O)N[C@@H](CO)C(=O)N[C@@H](CC(=O)O)C(=O)N[C@@H](Cc1c[nH]cn1)C(=O)N[C@H](C(=O)N[C@H](C(=O)N[C@H](C(=O)N[C@@H](CCC(=O)O)C(=O)N[C@@H](CC(=O)O)C(=O)N[C@H](C(=O)N[C@@H](CCCCN)C(=O)O)[C@@H](C)O)C(C)C)[C@@H](C)O)[C@@H](C)O)C(C)C)[C@@H](C)O)C(C)C (some centres unmarked) [111In-FnBPA5, metal not drawn]
Biodistribution, Blood (PC-3-bearing mice [1]; 1 h p.i.): 1.81 ± 0.62 IA% / g
Biodistribution, Bone (PC-3-bearing mice [1]; 1 h p.i.): 1.85 ± 0.21 IA% / g
Biodistribution, Heart (PC-3-bearing mice [1]; 1 h p.i.): 1.76 ± 0.51 IA% / g
Biodistribution, Intestines (PC-3-bearing mice [1]; 1 h p.i.): 2.27 ± 0.33 IA% / g
Biodistribution, Kidneys (PC-3-bearing mice [1]; 1 h p.i.): 140.58 ± 18.10 IA% / g
Biodistribution, Liver (PC-3-bearing mice [1]; 1 h p.i.): 7.52 ± 1.50 IA% / g
Biodistribution, Lung (PC-3-bearing mice [1]; 1 h p.i.): 2.88 ± 0.64 IA% / g
Biodistribution, Muscle (PC-3-bearing mice [1]; 1 h p.i.): 0.57 ± 0.07 IA% / g
Biodistribution, Pancreas (PC-3-bearing mice [1]; 1 h p.i.): 2.58 ± 1.27 IA% / g
Biodistribution, Spleen (PC-3-bearing mice [1]; 1 h p.i.): 7.01 ± 1.23 IA% / g
Biodistribution, Stomach (PC-3-bearing mice [1]; 1 h p.i.): 3.07 ± 0.39 IA% / g
Biodistribution, Blood (PC-3-bearing mice [1]; 4 h p.i.): 0.48 ± 0.08 IA% / g
Biodistribution, Bone (PC-3-bearing mice [1]; 4 h p.i.): 1.32 ± 0.26 IA% / g
Biodistribution, Heart (PC-3-bearing mice [1]; 4 h p.i.): 0.91 ± 0.06 IA% / g
Biodistribution, Intestines (PC-3-bearing mice [1]; 4 h p.i.): 1.77 ± 0.12 IA% / g
Biodistribution, Kidneys (PC-3-bearing mice [1]; 4 h p.i.): 130.66 ± 10.32 IA% / g
Biodistribution, Liver (PC-3-bearing mice [1]; 4 h p.i.): 3.85 ± 0.16 IA% / g
Biodistribution, Lung (PC-3-bearing mice [1]; 4 h p.i.): 1.98 ± 0.12 IA% / g
Biodistribution, Muscle (PC-3-bearing mice [1]; 4 h p.i.): 0.50 ± 0.17 IA% / g
Biodistribution, Pancreas (PC-3-bearing mice [1]; 4 h p.i.): 2.31 ± 1.18 IA% / g
Biodistribution, Spleen (PC-3-bearing mice [1]; 4 h p.i.): 3.35 ± 0.33 IA% / g
Biodistribution, Stomach (PC-3-bearing mice [1]; 4 h p.i.): 2.46 ± 0.36 IA% / g
Biodistribution, Tumor (PC-3-bearing mice [1]; 4 h p.i.): 4.51 ± 0.15 IA% / g
Biodistribution, Blood (PC-3-bearing mice [1]; 24 h p.i.): 0.15 ± 0.008 IA% / g
Biodistribution, Bone (PC-3-bearing mice [1]; 24 h p.i.): 0.86 ± 0.117 IA% / g
Biodistribution, Heart (PC-3-bearing mice [1]; 24 h p.i.): 0.31 ± 0.025 IA% / g
Biodistribution, Intestines (PC-3-bearing mice [1]; 24 h p.i.): 0.57 ± 0.039 IA% / g
Biodistribution, Kidneys (PC-3-bearing mice [1]; 24 h p.i.): 92.36 ± 14.25 IA% / g
Biodistribution, Liver (PC-3-bearing mice [1]; 24 h p.i.): 1.64 ± 0.26 IA% / g
Biodistribution, Lung (PC-3-bearing mice [1]; 24 h p.i.): 1.05 ± 0.11 IA% / g
Biodistribution, Muscle (PC-3-bearing mice [1]; 24 h p.i.): 0.24 ± 0.034 IA% / g
Biodistribution, Pancreas (PC-3-bearing mice [1]; 24 h p.i.): 0.78 ± 0.47 IA% / g
Biodistribution, Spleen (PC-3-bearing mice [1]; 24 h p.i.): 1.38 ± 0.068 IA% / g
Biodistribution, Stomach (PC-3-bearing mice [1]; 24 h p.i.): 0.51 ± 0.15 IA% / g
Biodistribution, Tumor (PC-3-bearing mice [1]; 24 h p.i.): 3.59 ± 0.53 IA% / g
Biodistribution, Blood (PC-3-bearing mice [1]; 96 h p.i.): 0.06 ± 0.027 IA% / g
Biodistribution, Bone (PC-3-bearing mice [1]; 96 h p.i.): 0.50 ± 0.09 IA% / g
Biodistribution, Heart (PC-3-bearing mice [1]; 96 h p.i.): 0.14 ± 0.017 IA% / g
Biodistribution, Intestines (PC-3-bearing mice [1]; 96 h p.i.): 0.13 ± 0.02 IA% / g
Biodistribution, Kidneys (PC-3-bearing mice [1]; 96 h p.i.): 39.69 ± 4.79 IA% / g
Biodistribution, Liver (PC-3-bearing mice [1]; 96 h p.i.): 0.89 ± 0.12 IA% / g
Biodistribution, Lung (PC-3-bearing mice [1]; 96 h p.i.): 0.32 ± 0.038 IA% / g
Biodistribution, Muscle (PC-3-bearing mice [1]; 96 h p.i.): 0.095 ± 0.02 IA% / g
Biodistribution, Pancreas (PC-3-bearing mice [1]; 96 h p.i.): 0.18 ± 0.046 IA% / g
Biodistribution, Spleen (PC-3-bearing mice [1]; 96 h p.i.): 0.73 ± 0.417 IA% / g
Biodistribution, Stomach (PC-3-bearing mice [1]; 96 h p.i.): 0.31 ± 0.052 IA% / g
Biodistribution, Tumor (PC-3-bearing mice [1]; 96 h p.i.): 1.87 ± 0.773 IA% / g
tissue to tissue ratio at 1 h ([2]; read-out: Tumor-to-blood ratio): 3.05 ± 1.65
tissue to tissue ratio at 1 h [2, 6]: 0.03
tissue to tissue ratio at 1 h ([2]; read-out: Tumor-to-liver ratio): 0.66 ± 0.22
tissue to tissue ratio at 4 h ([2]; read-out: Tumor-to-blood ratio): 9.68 ± 1.83
tissue to tissue ratio at 4 h [2, 6]: 0.03
tissue to tissue ratio at 4 h ([2]; read-out: Tumor-to-liver ratio): 1.18 ± 0.08
tissue to tissue ratio at 24 h ([2]; read-out: Tumor-to-blood ratio): 23.9 ± 2.52
tissue to tissue ratio at 24 h [2, 6]: 0.04
tissue to tissue ratio at 24 h ([2]; read-out: Tumor-to-liver ratio): 2.21 ± 0.25
tissue to tissue ratio at 96 h ([2]; read-out: Tumor-to-blood ratio): 34 ± 18.4
tissue to tissue ratio at 96 h [2, 6]: 0.05 ± 0.02
tissue to tissue ratio at 96 h ([2]; read-out: Tumor-to-liver ratio): 2.11 ± 0.82
stability in human blood plasma ([3]; 1 hour time point): high stability
stability in human blood plasma ([3]; later time point): very high stability
fraction intact in human blood plasma ([3]; filtered fresh human blood plasma, 37 °C, 72 h, 12 MBq): 80%
remaining at 72 h ([3]; filtered fresh human blood plasma, 37 °C, 72 h, 12 MBq, read-out: fraction intact in human blood plasma): ~80%
SPECT/CT distribution (PC-3-bearing mice [4]; ~15 MBq (2.4 nmol, 100 µL PBS) i.v., up to 96 h p.i.): mainly accumulated in the kidneys
SPECT/CT distribution after kidney removal (PC-3-bearing mice [4]; ~15 MBq i.v., 96 h p.i., post mortem, kidneys removed): predominant uptake in the tumor, liver, and spleen
effect of pre-injection of unlabeled peptide on accumulation (PC-3-bearing mice [5]; 24 nmol unlabeled peptide pre-injected, 4 h p.i., Student's t test, n = 4): significant reduction
blocking effect on uptake, liver (PC-3-bearing mice [5]; [7]): −58.2%
blocking effect on uptake, tumor tissue (PC-3-bearing mice [5]; [7]): −35.6%
Biodistribution with blocking, Blood (PC-3-bearing mice [5]; [8]): 0.29 ± 0.074 IA% / g
Biodistribution with blocking, Bone (PC-3-bearing mice [5]; [8]): 0.73 ± 0.31 IA% / g
Biodistribution with blocking, Heart (PC-3-bearing mice [5]; [8]): 0.37 ± 0.080 IA% / g
Biodistribution with blocking, Intestines (PC-3-bearing mice [5]; [8]): 0.53 ± 0.137 IA% / g
Biodistribution with blocking, Kidneys (PC-3-bearing mice [5]; [8]): 175.80 ± 32.48 IA% / g
Biodistribution with blocking, Liver (PC-3-bearing mice [5]; [8]): 1.61 ± 0.56 IA% / g
Biodistribution with blocking, Lung (PC-3-bearing mice [5]; [8]): 0.95 ± 0.317 IA% / g
Biodistribution with blocking, Muscle (PC-3-bearing mice [5]; [8]): 0.20 ± 0.12 IA% / g
Biodistribution with blocking, Pancreas (PC-3-bearing mice [5]; [8]): 0.96 ± 0.384 IA% / g
Biodistribution with blocking, Spleen (PC-3-bearing mice [5]; [8]): 1.33 ± 0.402 IA% / g
Biodistribution with blocking, Stomach (PC-3-bearing mice [5]; [8]): 1.13 ± 0.14 IA% / g
Biodistribution with blocking, Tumor (PC-3-bearing mice [5]; [8]): 2.91 ± 0.70 IA% / g
